Reference: patent US12220411B1, “Application of PTGDS inhibitor in preparation of drug for treating cataracts” (THE EYE HOSPITAL OR WENZHOU MEDICAL UNIVERSITY, priority 2023, dated 2025)

What was measured:
lens epithelial cells [1] = assay: MDA content measurement (oxidative stress injury); format: cell-based, human
Procedure: MDA is an important index of oxidative stress, and measurement on the content of the MDA reflects a degree of an oxidative stress injury. After addition of different concentrations of PTGDS (FIG. 10A) and PGD2 (FIG. 10B), values of MDA were measured.

lens epithelial cells [2] = assay: ROS fluorescence staining after addition of PTGDS or PGD2; format: cell-based, human
rat lens = assay: In vitro oxidative opacity model for a rat lens (lens organ culture)
HLEC-B3 cell line = assay: CCK8 cell activity with AT-56 added; format: cell-based, human
Procedure: AT-56 was added to the cell line.

lens epithelial cells [3] = assay: Apoptosis of lens epithelial cells cultured with H2O2; format: cell-based, human; settings: 10 μM AT-56 added to 200 μM H2O2 (FIG. 11)
Source text: If the lens epithelial cells suffer from the oxidative stress injury, excessive ROS may accumulate in the cells, which can cause apoptosis until generation of cataracts.

lens epithelial cells [4] = assay: ROS fluorescence staining in H2O2 epithelial cell oxidation model; format: cell-based, human; settings: 200 μM H2O2 and 10 µM AT-56 (FIG. 9)

CCCCC[C@H](O)/C=C/[C@H]1C(=O)C[C@H](O)[C@@H]1C/C=C\CCCC(=O)O [PGD2, prostaglandin D2]
content of MDA (lens epithelial cells [1]; different concentrations of PGD2 (FIG. 10B)): increased with the increase of the concentration
levels of ROS produced by the lens epithelial cells (lens epithelial cells [2]; PGD2 0.1, 0.4, 0.7, 1.0 nM versus DMSO (FIG. 8)): increased, and were concentration-dependent

C1=Cc2ccccc2C(=C2CCN(CCCCc3nn[nH]n3)CC2)c2ccccc21 [AT-56, 4-dibenzo[a,d]cyclohepten-5-ylidene-1-[4-(2H-tetrazol-5-yl)-butyl]-piperidine]
progression of the cataracts (lens opacity) (rat lens; 200 μM H2O2 + 7 or 10 μM AT-56 for 12 h (FIGS. 12A-D)): alleviated progression of the cataracts
degree of the cataracts (lens opacity) (rat lens; 200 μM H2O2 for 12 h, then 7 or 10 μM AT-56 for 24 h (FIGS. 12E-G)): effectively reduce the degree of the cataracts
cell activity (CCK8) (HLEC-B3 cell line; 7 μM AT-56, versus DMSO): higher than that with the addition of DMSO
cell activity (CCK8) (HLEC-B3 cell line; 10 μM AT-56, versus DMSO): higher than that with the addition of DMSO
apoptosis of lens epithelial cells (lens epithelial cells [3]): effectively reduce apoptosis
ROS production in H2O2 epithelial cell oxidation model (lens epithelial cells [4]): inhibit lens epithelial cells from producing ROS
production of the MDA (lens epithelial cells [1]; AT-56 added to 200 μM H2O2 (FIG. 10C)): effectively reduce production of the MDA

B1: PTGDS: prostaglandin H2 (PGH2) D-isomerase protein added to lens epithelial cells at 100-1000 pg/mL (protein, UniProt P41222 23-190, looked up)
Prostaglandin-H2 D-isomerase: APEAQVSVQPNFQQDKFLGRWFSAGLASNSSWLREKKAALSMCKSVVAPATDGGLNLTSTFLRKNQCETRTMLLQPAGSLGSYSYRSPHWGSTYSVSVVETDYDQYALLYSQGSKGPGEDFRMATLYSRTQTPRAELKEKFTAFCKAQGFTEDTIVFLPQTDKCMTEQ
content of MDA (lens epithelial cells [1]; different concentrations of PTGDS (FIG. 10A)): increased with the increase of the concentration
levels of ROS produced by the lens epithelial cells (lens epithelial cells [2]; PTGDS 100, 400, 700, 1000 pg/mL versus DMSO control (FIG. 7)): increased, and were concentration-dependent
